Measurements taken from patent publication US9181234B2, “Antibacterial compounds” (priority 2010, dated 2015).
In brackets after ≈: the same amount, converted by molar mass.

Assays:
[1] = system: Streptococcus pyogenes (Isolate ID ATCC 51339); assay: Antibacterial activity, MIC, S. pyogenes; type: cell-based; conditions: Streptococcus pyogenes, ATCC51339, Gram positive strain; broth microdilution or agar dilution
Outline: (§1)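 Broth microdilution or agar dilution per CLSI M7-A7; MIC read as susceptibility endpoint in liquid or solid medium.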

[2] = system: Staphylococcus aureus (Isolate ID ATCC 29213); assay: Antibacterial activity, MIC, S. aureus; type: cell-based; conditions: Staphylococcus aureus, ATCC29213, Gram positive strain; broth microdilution or agar dilution
Outline: as §1

physchem = conditions: kinetic from dmso stock
Outline: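 DMSO doubling dilutions were diluted twenty-fold into 100 mM citrate (pH 4), PBS (pH 7.4) or carbonate-bicarbonate (pH 9). After 24 h equilibration at room temperature, absorbance was read at 620 nm. The reported value is the highest concentration without measurable precipitate.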

[3] = system: Haemophilus influenzae (Isolate ID ATCC 49247); assay: Antibacterial activity, MIC, H. influenzae; type: cell-based; conditions: Haemophilus influenzae, ATCC49247; Gram negative strain; broth microdilution or agar dilution
Outline: as §1

[4] = system: Enterococcus faecalis (Isolate ID ATCC 29212); assay: Antibacterial activity, MIC, E. faecalis; type: cell-based; conditions: Enterococcus faecalis, ATCC29212; Gram positive strain; broth microdilution or agar dilution
Protocol: Bacterial Assay: Determination of Antibacterial Activity
Compounds of the invention were tested for antimicrobial activity by susceptibility testing in liquid or on solid media. MICs for compounds against each strain were determined by the broth microdilution or agar dilution method according to the guidelines of the Clinical Laboratories and Standards Institute, formerly the National Committee for Clinical Laboratory Standards (Clinical Laboratories and Standards Institute. Methods for Dilution Antimicrobial Susceptibility Tests for Bacteria That Grow Aerobically; Approved Standard—Seventh Edition. Document M7-A7. CLSI, Wayne, Pa., 2006; Clinical Laboratories and Standards Institute. The gram positive bacterial strains tested include S. aureus (Staphylococcus aureus (Isolate ID ATCC 29213)), E. faecalis (Enterococcus faecalis (Isolate ID ATCC 29212)) and S. pyogenes (Streptococcus pyogenes (Isolate ID ATCC 51339)). The gram negative bacterial strains tested include H. influenzae (Haemophilus influenzae (Isolate ID ATCC 49247))

[5] = pH 7.4, aqueous buffer, Solubility (pH 7.4)
[6] = pH 7.4, aqueous buffer, Solubility Range
[7] = pH 9, aqueous buffer, Max Solubility
[8] = pH 9, aqueous buffer, Solubility Range (maximum solubility)
[9] = pH 7.4, aqueous buffer, Max Solubility
[10] = pH 7.4, aqueous buffer, Solubility Range (maximum solubility)

Row | MIC [1] [µg/mL] | MIC [2] [µg/mL] | solubility at 24 h (physchem; [5]) [µg/mL] | solubility at 24 h (physchem; [6]) [µg/mL] | solubility at 24 h (physchem; [7]) [µg/mL] | solubility at 24 h (physchem; [8]) [µg/mL] | MIC [3] [µg/mL] | MIC [4] [µg/mL] | solubility at 24 h (physchem; [9]) [µg/mL] | solubility at 24 h (physchem; [10]) [µg/mL] | Compound
1 | ≤ 0.25 | ≤ 0.25 | 400 (≈ 732 µM) | 400 to 800 (≈ 732 to 1460 µM) | ≥ 800 | > 800 | 1 to 16 (≈ 1.83 to 29.3 µM) | ≤ 0.25 |  |  | CCCC1(C(=O)O)CCN(c2ncc(-c3cc(-c4cnccn4)c4sc(NC(=O)NCC)nc4c3)cn2)CC1 [Compound 118]
2 | 1 to 16 (≈ 1.76 to 28.2 µM) | > 16 | ≥ 800 | > 800 |  |  | > 16 | 0.25 to 1 (≈ 0.441 to 1.76 µM) |  |  | CCNC(=O)Nc1nc2cc(-c3cnc(N4CCC(C)(C(=O)O)CC4)nc3)cc(C(=O)Nc3nccs3)c2s1 [Compound 145, 1-[5-[2-(ethylcarbamoylamino)-7-(thiazol-2-ylcarbamoyl)-1,3-benzothiazol-5-yl]pyrimidin-2-yl]-4-methyl-piperidine-4-carboxylic acid]
3 | ≤ 0.25 | ≤ 0.25 | ≥ 800 | > 800 |  |  | 0.25 to 1 (≈ 0.456 to 1.82 µM) | ≤ 0.25 |  |  | CCNC(=O)Nc1nc2cc(-c3cnc(N4CCC(C)(C(=O)O)CC4)nc3)cc(-c3cc(OC)ncn3)c2s1 [Compound 15]
4 | 0.25 to 1 (≈ 0.52 to 2.08 µM) | 0.25 to 1 (≈ 0.52 to 2.08 µM) | ≥ 800 | > 800 |  |  | 1 to 16 (≈ 2.08 to 33.3 µM) | ≤ 0.25 | ≥ 800 | > 800 | CCNC(=O)Nc1nc2cc(-c3cnc(N4CCC(C)(C(=O)O)CC4)nc3)cc(C3CC3)c2s1 [Compound 87, 1-{5-[7-Cyclopropyl-2-(3-ethyl-ureido)-benzothiazol-5-yl]-pyrimidin-2-yl}-4-methyl-piperidine-4-carboxylic acid]
5 | ≤ 0.25 | 0.25 to 1 (≈ 0.456 to 1.82 µM) | 25 (≈ 45.6 µM) | 12.5 to 400 (≈ 22.8 to 729 µM) | 100 (≈ 182 µM) | 12.5 to 400 (≈ 22.8 to 729 µM) | 1 to 16 (≈ 1.82 to 29.2 µM) | ≤ 0.25 |  |  | CCNC(=O)Nc1nc2cc(-c3cnc(N4CCC(C)(C(=O)O)CC4)nc3)cc(-c3ccnc(OC)n3)c2s1 [Compound 42]
6 | 1 to 16 (≈ 1.92 to 30.7 µM) | 0.25 to 1 (≈ 0.48 to 1.92 µM) | ≥ 800 | > 800 |  |  | > 16 | ≤ 0.25 |  |  | CCCCC#Cc1cc(-c2cnc(N3CCC(C)(C(=O)O)CC3)nc2)cc2nc(NC(=O)NCC)sc12 [Compound 22]
7 | ≤ 0.25 | ≤ 0.25 | ≥ 800 | > 800 |  |  | > 16 | ≤ 0.25 |  |  | CCNC(=O)Nc1nc2cc(-c3cnc(N4CCC(C)(C(=O)O)CC4)c(C)c3)cc(-c3ccccn3)c2s1 [Compound 5]
8 | ≤ 0.25 | ≤ 0.25 | 25 (≈ 44.9 µM) | 12.5 to 400 (≈ 22.5 to 719 µM) | 50 (≈ 89.8 µM) | 12.5 to 400 (≈ 22.5 to 719 µM) | 1 to 16 (≈ 1.8 to 28.7 µM) | ≤ 0.25 |  |  | CCNC(=O)Nc1nc2cc(-c3cnc(N4CCC(C)(C(=O)O)CC4)nc3)cc(-c3ccc(C#N)c(C)n3)c2s1 [Compound 58]
9 | ≤ 0.25 | ≤ 0.25 | 400 (≈ 713 µM) | 400 to 800 (≈ 713 to 1430 µM) | ≥ 800 | > 800 | > 16 | ≤ 0.25 |  |  | CCCC1(C(=O)O)CCN(c2ncc(-c3cc(-c4nccc(C)n4)c4sc(NC(=O)NCC)nc4c3)cn2)CC1 [Compound 120]
10 | ≤ 0.25 | 0.25 to 1 (≈ 0.459 to 1.84 µM) | 400 (≈ 734 µM) | 400 to 800 (≈ 734 to 1470 µM) |  |  | 0.25 to 1 (≈ 0.459 to 1.84 µM) | ≤ 0.25 |  |  | CCNC(=O)Nc1nc2cc(-c3cnc(N4CCC(C)(C(=O)O)CC4)nc3)cc(C#Cc3cncn3C)c2s1 [Compound 144, 1-[5-[2-(ethylcarbamoylamino)-7-[2-(3-methylimidazol-4-yl)ethynyl]-1,3-benzothiazol-5-yl]pyrimidin-2-yl]-4-methyl-piperidine-4-carboxylic acid]
11 | ≤ 0.25 | ≤ 0.25 | 400 (≈ 714 µM) | 400 to 800 (≈ 714 to 1430 µM) | ≥ 800 | > 800 | 1 to 16 (≈ 1.78 to 28.5 µM) | ≤ 0.25 |  |  | CCNC(=O)Nc1nc2cc(-c3cnc(N4CCC(C)(C(=O)O)CC4)nc3)cc(-c3ncc(C#N)cc3F)c2s1 [Compound 63]
12 | ≤ 0.25 | ≤ 0.25 | 12.5 (≈ 22.5 µM) | 12.5 to 400 (≈ 22.5 to 719 µM) |  |  | 1 to 16 (≈ 1.8 to 28.7 µM) | ≤ 0.25 |  |  | CCNC(=O)Nc1nc2cc(-c3cnc(N4CCC(CC)(C(=O)O)CC4)nc3)cc(-c3cc(C#N)ccn3)c2s1 [Compound 100]
13 | 0.25 to 1 (≈ 0.493 to 1.97 µM) | 0.25 to 1 (≈ 0.493 to 1.97 µM) | ≥ 800 | > 800 |  |  | 1 to 16 (≈ 1.97 to 31.6 µM) | ≤ 0.25 |  |  | CCNC(=O)Nc1nc2cc(-c3cnc(N4CCC(C)(C(=O)O)CC4)nc3)cc(-n3cccn3)c2s1 [Compound 29]
14 | ≤ 0.25 | ≤ 0.25 | ≥ 800 | > 800 |  |  | 0.25 to 1 (≈ 0.461 to 1.84 µM) | ≤ 0.25 |  |  | CCNC(=O)Nc1nc2cc(-c3cnc(N4CCC(C)(C(=O)O)CC4)nc3)cc(-c3ccc(C#N)cn3)c2s1 [Compound 14]
15 | ≤ 0.25 | ≤ 0.25 | ≥ 800 | > 800 |  |  | 1 to 16 (≈ 1.79 to 28.7 µM) | ≤ 0.25 | ≥ 800 | > 800 | CCNC(=O)Nc1nc2cc(-c3cnc(N4CCC(C)(C(=O)O)CC4)nc3)cc(-c3nccc4occc34)c2s1 [Compound 70]
16 | ≤ 0.25 | 0.25 to 1 (≈ 0.477 to 1.91 µM) | ≥ 800 | > 800 |  |  | 1 to 16 (≈ 1.91 to 30.6 µM) | ≤ 0.25 |  |  | CCNC(=O)Nc1nc2cc(-c3cnc(N4CCC(C)(C(=O)O)CC4)nc3)cc(-c3cncs3)c2s1 [Compound 20]
17 | ≤ 0.25 | ≤ 0.25 | 6.25 (≈ 11.8 µM) | < 12.5 |  |  | 1 to 16 (≈ 1.88 to 30.2 µM) | ≤ 0.25 |  |  | CCNC(=O)Nc1nc2cc(-c3ccc(C4=NOC(C)(C(=O)OCC)C4)nc3)cc(-c3ccccn3)c2s1 (centres unmarked) [Compound 184]
18 | 0.25 to 1 (≈ 0.411 to 1.64 µM) | 1 to 16 (≈ 1.64 to 26.3 µM) | ≥ 800 | > 800 |  |  | > 16 | ≤ 0.25 | ≥ 800 | > 800 | CCNC(=O)Nc1nc2cc(-c3cnc(N4CCC(C)(C(=O)O)CC4)nc3)cc(-c3cnc(N4CCOCC4)s3)c2s1 [Compound 76]
19 | ≤ 0.25 | 0.25 to 1 (≈ 0.496 to 1.99 µM) | ≥ 800 | > 800 |  |  | 0.25 to 1 (≈ 0.496 to 1.99 µM) | ≤ 0.25 | ≥ 800 | > 800 | CCNC(=O)Nc1nc2cc(-c3cnc(N4CCCC4(C)C(=O)O)nc3)cc(-c3ccccn3)c2s1 (centres unmarked) [Compound 163]
20 | ≤ 0.25 | ≤ 0.25 | ≥ 800 | > 800 |  |  | 0.25 to 1 (≈ 0.456 to 1.82 µM) | ≤ 0.25 | ≥ 800 | > 800 | CCNC(=O)Nc1nc2cc(-c3cnc(N4CCC(C)(C(=O)O)CC4)nc3)cc(-c3ncc(OC)cn3)c2s1 [Compound 51]
21 | ≤ 0.25 | ≤ 0.25 | ≥ 800 | > 800 |  |  | 1 to 16 (≈ 1.88 to 30 µM) | ≤ 0.25 |  |  | CCNC(=O)Nc1nc2cc(-c3cnc(N4CCC(C)(C(=O)O)CC4)nc3)cc(-c3nccc(C)n3)c2s1 [Compound 12]
22 | ≤ 0.25 | ≤ 0.25 | 400 (≈ 751 µM) | 400 to 800 (≈ 751 to 1500 µM) | ≥ 800 | > 800 | 0.25 to 1 (≈ 0.469 to 1.88 µM) | ≤ 0.25 |  |  | CCNC(=O)Nc1nc2cc(-c3cnc(N4CCC(C)(C(=O)O)CC4)nc3)cc(-c3ccnc(C)n3)c2s1 [Compound 43]
23 | ≤ 0.25 | ≤ 0.25 | ≥ 800 | > 800 |  |  | 0.25 to 1 (≈ 0.469 to 1.88 µM) | ≤ 0.25 | ≥ 800 | > 800 | CCNC(=O)Nc1nc2cc(-c3cnc(N4CCC(C)(C(=O)O)CC4)nc3)cc(-c3cc(C)ncn3)c2s1 [Compound 45]
24 | ≤ 0.25 | ≤ 0.25 | 200 (≈ 366 µM) | 12.5 to 400 (≈ 22.9 to 732 µM) | ≥ 800 | > 800 | 0.25 to 1 (≈ 0.457 to 1.83 µM) | ≤ 0.25 |  |  | CCNC(=O)Nc1nc2cc(-c3cnc(N4CCC(C)(C(=O)O)CC4)nc3)cc(-c3cnc(CC)cn3)c2s1 [Compound 83]
25 | ≤ 0.25 | ≤ 0.25 | ≥ 800 | > 800 |  |  | 1 to 16 (≈ 1.89 to 30.2 µM) | ≤ 0.25 |  |  | CCNC(=O)Nc1nc2cc(-c3cnc(N4CC5CCCC5(C(=O)O)C4)nc3)cc(-c3ccccn3)c2s1 (centres unmarked) [Compound 165]
